Data from ChEMBL document CHEMBL1201862, “PubChem BioAssay data set” (2004).
Active and inactive are the calls of the source.

Columns and labels:
Candida albicans [1] = assay: growth inhibition of resistant C. albicans, dose response, CaCi-8 strain, fluconazole, dry powder, set 4 (AID 488950); type: functional, organism-based
Candida albicans [2] = assay: fluconazole resistance reversal in C. albicans, dose response, CaCi-2 strain, Alamar Blue, dry powder, set 4 (AID 488943); type: functional, organism-based
Candida albicans [3] = assay: Candida albicans growth inhibition, agent alone, dose response, counter-screen for reversing antifungal drug resistance, CaCi-2 strain, no fluconazole, dry powder, set 4 (AID 488932); type: functional, organism-based
[4] = off-target signal loss in HeLa-CEM21 co-culture – HeLa F-luc CTL cells, cherry-picked, counter-screen for HIV-1 Env fusion inhibitor project, dose response (AID 652040); type: functional, cell-based;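 also: potency for signal decrease marking cytotoxic or nonspecific inhibition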
[5] = target: Delta-type opioid receptor (Homo sapiens, UniProt P41143); assay: Counterscreen for agonists of heterodimerization of the mu 1 (OPRM1) and delta 1 (OPRD1) opioid receptors: Luminescence-based cell-based high throughput dose response assay to identify agonists of OPRD1 homodimerization. [Related pubchem assays (depositor defined):AID504326, AID504355, AID504692, AID504904, AID504905]; type: functional
[6] = inhibitors of clade B AD8 Env fusion, dose response, cell-based, cherry-pick (AID 652062); type: functional;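 also: luciferase signal from cell-cell fusion driven by HIV-1 clade B AD8 Env; potency is for inhibitors of fusion seen as a drop in luminescence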
[7] = inhibitors of HIV Env-driven cell fusion, dose response, cherry-pick (AID 652057); type: functional, cell-based
[8] = target: T1, Short transient receptor potential channel 4 (Mus musculus, UniProt Q9QUQ5); assay: mouse TRPC4 channel activators, dose response, cell-based, HEK293 TRPC4/mu-opioid, Fluo-4 calcium (AID 434937); type: functional
T1 sequence (Q9QUQ5 whole entry): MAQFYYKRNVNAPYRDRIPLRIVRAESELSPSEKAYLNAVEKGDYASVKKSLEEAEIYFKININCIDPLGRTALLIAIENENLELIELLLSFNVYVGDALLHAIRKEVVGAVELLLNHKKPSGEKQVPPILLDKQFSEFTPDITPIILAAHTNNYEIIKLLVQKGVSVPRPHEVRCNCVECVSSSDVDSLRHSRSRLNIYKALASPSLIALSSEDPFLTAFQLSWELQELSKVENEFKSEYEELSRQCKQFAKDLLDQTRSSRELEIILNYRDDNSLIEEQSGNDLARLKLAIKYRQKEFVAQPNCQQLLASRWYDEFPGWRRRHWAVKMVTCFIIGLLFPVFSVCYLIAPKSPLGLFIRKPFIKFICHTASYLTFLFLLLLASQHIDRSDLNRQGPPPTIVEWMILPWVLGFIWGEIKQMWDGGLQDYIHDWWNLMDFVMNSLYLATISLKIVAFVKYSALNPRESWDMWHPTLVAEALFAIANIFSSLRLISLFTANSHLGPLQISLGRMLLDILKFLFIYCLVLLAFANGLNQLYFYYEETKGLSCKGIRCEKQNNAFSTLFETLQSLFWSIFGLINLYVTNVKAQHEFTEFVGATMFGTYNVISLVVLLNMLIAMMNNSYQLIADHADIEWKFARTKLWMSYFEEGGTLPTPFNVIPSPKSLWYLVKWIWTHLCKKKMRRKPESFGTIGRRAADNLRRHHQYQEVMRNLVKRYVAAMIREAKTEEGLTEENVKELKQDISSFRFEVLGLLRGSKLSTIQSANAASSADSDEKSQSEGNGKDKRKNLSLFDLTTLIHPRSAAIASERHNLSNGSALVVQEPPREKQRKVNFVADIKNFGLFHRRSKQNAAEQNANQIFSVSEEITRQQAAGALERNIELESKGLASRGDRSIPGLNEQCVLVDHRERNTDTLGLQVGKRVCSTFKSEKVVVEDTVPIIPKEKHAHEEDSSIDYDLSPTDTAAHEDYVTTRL

[9] = target: 5-hydroxytryptamine receptor 5A (Homo sapiens, UniProt P47898); assay: Counterscreen for agonists of OPRM1-OPRD1 heterodimerization: luminescence-based cell-based high throughput dose response assay to identify agonists of 5-hydroxytryptamine (serotonin) 5A receptor (HTR5A). [Related pubchem assays (depositor defined):AID504326, AID504355, AID504692, AID504904, AID504905]; type: functional
Mu-type opioid receptor = Mu-type opioid receptor (Homo sapiens, UniProt P35372); assay: Counterscreen for agonists of heterodimerization of the mu 1 (OPRM1) and delta 1 (OPRD1) opioid receptors: Luminescence-based cell-based high throughput dose response assay to identify agonists of OPRM1 homodimerization.; type: functional;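 also: U2OS cells expressing OPRM1 and beta-arrestin as split beta-galactosidase partners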
[10] = ZM109 Env clade C HIV-1 fusion inhibitors, dose response, HeLa effector, CEM target cells, luciferase, cherry-pick (AID 652058); type: functional, cell-based
[11] = target: T2, Endoribonuclease toxin MazF (Escherichia coli K-12, UniProt P0AE70); assay: MazF toxin RNase activators, dose response, biochemical, fluorescence, single-stranded RNA substrate, uHTS hits (AID 588481); type: functional
T2 sequence (P0AE70 whole entry): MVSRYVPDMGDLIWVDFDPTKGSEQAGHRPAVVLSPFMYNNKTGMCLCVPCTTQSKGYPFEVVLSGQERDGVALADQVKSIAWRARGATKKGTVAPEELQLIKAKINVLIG

[12] = target: T2, Endoribonuclease toxin MazF; assay: fluorescent RNA oligo signal without MazF, dose response, counter-screen for MazEF activator project, biochemical, fluorescence, single-stranded RNase substrate (AID 588502); type: functional
Hexokinase HKDC1 = target: T3, Hexokinase HKDC1 (Homo sapiens, UniProt Q2TB90); assay: HKDC1 hexokinase inhibitors, SAR follow-up, biochemical, set 2 (AID 588355); type: functional
T3 sequence (Q2TB90 whole entry): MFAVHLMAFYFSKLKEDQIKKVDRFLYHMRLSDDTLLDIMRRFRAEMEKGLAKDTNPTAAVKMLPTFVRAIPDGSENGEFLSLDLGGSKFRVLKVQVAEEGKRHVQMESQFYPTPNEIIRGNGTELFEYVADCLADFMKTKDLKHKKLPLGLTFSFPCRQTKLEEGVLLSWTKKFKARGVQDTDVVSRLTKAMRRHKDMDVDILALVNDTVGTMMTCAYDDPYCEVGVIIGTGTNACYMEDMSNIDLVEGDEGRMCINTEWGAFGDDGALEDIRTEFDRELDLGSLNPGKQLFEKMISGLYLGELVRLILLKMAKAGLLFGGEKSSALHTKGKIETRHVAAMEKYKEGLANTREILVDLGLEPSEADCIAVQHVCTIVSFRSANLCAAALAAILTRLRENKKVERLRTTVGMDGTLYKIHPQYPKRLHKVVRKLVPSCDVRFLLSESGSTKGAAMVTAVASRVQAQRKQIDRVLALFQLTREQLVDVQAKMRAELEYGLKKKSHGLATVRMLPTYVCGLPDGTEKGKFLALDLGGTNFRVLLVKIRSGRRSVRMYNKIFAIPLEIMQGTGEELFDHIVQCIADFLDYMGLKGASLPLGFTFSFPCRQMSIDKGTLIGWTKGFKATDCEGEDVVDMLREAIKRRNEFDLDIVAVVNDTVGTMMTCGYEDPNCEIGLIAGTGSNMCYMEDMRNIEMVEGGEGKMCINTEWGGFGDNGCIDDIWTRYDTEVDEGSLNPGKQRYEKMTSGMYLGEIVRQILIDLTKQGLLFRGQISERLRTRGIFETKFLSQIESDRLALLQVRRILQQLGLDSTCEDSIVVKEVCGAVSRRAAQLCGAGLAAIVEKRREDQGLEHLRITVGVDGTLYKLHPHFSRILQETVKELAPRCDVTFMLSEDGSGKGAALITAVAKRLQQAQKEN

Hexokinase-1 = Hexokinase-1 (Homo sapiens, UniProt P19367); assay: HK1 enzyme inhibition by HKDC1 hits, SAR follow-up, selectivity assay for HKDC1 inhibitor project, biochemical, set 2, resazurin fluorescence coupled readout (AID 588356); type: functional
Hexokinase-1, sequence (P19367 whole entry): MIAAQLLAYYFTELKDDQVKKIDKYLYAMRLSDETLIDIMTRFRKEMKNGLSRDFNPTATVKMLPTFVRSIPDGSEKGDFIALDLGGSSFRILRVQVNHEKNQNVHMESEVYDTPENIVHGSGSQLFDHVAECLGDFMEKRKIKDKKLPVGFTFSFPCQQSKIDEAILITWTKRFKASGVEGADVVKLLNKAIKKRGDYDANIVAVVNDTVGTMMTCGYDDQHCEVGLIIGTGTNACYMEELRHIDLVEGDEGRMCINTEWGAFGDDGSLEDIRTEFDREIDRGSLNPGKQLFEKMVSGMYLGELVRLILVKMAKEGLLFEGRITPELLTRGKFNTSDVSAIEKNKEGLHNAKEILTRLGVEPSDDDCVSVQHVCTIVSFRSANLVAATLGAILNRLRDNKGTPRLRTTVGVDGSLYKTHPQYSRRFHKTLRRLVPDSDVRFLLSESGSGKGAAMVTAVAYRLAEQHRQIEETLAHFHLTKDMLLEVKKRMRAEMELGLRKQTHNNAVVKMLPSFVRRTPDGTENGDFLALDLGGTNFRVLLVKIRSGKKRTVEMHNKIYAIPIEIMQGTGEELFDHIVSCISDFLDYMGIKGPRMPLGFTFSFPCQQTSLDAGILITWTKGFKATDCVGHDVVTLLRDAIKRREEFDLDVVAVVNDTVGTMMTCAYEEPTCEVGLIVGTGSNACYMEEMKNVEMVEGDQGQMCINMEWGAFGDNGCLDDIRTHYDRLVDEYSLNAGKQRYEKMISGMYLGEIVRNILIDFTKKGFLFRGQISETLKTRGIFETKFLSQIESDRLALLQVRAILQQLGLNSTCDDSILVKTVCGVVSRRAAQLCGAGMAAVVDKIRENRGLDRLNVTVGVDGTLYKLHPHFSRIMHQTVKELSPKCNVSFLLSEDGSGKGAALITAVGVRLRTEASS

INS1 [13] = assay: beta cell apoptosis inhibitors, cytokine rescue, dose response, luminescence, retest (AID 449756); type: functional, cell-based; details: Rattus norvegicus;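 also: cell death triggered by IL-1 beta plus TNF-alpha plus IFN-gamma mixture; protective hits raise ATP signal compared with cytokine alone wells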
DNA topoisomerase = DNA topoisomerase (Yersinia pestis, UniProt A0A2S9PM60); assay: Y. pestis Topo-I inhibitors, cleavage product readout, dose response, biochemical, cherry-pick (AID 588525)
DNA topoisomerase, sequence (A0A2S9PM60 whole entry): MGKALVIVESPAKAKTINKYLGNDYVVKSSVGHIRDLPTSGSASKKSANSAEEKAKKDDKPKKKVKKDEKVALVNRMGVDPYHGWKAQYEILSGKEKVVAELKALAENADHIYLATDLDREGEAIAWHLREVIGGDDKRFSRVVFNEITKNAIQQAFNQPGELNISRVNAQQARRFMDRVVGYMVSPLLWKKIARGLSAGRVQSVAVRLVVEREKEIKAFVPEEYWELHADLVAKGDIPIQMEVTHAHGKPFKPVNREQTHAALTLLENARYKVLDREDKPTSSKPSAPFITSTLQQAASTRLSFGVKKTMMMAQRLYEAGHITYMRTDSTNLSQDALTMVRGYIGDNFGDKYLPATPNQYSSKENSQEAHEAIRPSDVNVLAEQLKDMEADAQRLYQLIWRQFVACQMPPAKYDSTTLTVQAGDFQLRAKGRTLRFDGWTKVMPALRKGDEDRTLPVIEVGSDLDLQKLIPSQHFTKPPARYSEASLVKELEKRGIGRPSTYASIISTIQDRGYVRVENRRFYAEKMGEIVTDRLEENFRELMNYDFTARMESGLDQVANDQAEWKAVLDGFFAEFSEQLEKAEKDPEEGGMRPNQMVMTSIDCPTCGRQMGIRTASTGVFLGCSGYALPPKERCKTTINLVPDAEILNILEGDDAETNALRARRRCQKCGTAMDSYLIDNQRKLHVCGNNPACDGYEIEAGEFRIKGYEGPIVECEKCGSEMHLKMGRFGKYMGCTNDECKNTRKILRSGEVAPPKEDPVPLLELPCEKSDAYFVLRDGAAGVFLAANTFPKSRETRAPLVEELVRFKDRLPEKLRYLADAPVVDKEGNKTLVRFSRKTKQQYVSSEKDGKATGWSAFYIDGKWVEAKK

CAAX prenyl protease 2 [14] = target: CAAX prenyl protease 2 (Homo sapiens, UniProt Q9Y256); assay: human Rce1 protease inhibitors, dose response, biochemical, yeast membranes, quenched-peptide fluorescence, cherry-pick (AID 588849)
Trypsin = Trypsin (Sus scrofa, UniProt P00761); assay: porcine trypsin inhibitors, dose response, selectivity assay for Rce1 protease inhibitor project, biochemical, quenched peptide fluorescence, cherry-pick (AID 488789)
CAAX prenyl protease 2 [15] = target: T4, CAAX prenyl protease 2 (Saccharomyces cerevisiae S288c, UniProt Q03530); type: biochemical
T4 sequence (Q03530 whole entry): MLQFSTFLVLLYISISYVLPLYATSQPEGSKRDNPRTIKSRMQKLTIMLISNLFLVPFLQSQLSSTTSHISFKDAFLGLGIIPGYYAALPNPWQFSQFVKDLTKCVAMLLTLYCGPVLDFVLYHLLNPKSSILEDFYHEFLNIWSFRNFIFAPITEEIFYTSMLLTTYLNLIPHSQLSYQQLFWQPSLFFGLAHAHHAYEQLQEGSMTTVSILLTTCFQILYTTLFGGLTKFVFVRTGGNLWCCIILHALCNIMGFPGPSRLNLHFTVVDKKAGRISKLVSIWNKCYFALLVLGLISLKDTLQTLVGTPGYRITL

[16] = cytotoxicity in MIN6 insulinoma cells, dose response, cytotoxicity control, cell-based, mouse insulinoma (AID 2122); type: functional;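 also: confirmatory high-throughput counterscreen run to flag cytotoxic compounds; mouse MIN-6 beta cells carrying an insulin promoter eGFP reporter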
[17] = insulin promoter down-regulators in MIN6 cells, imaging, high-content screening, mouse beta cells (AID 1628); type: functional
[18] = target: Beta-2 adrenergic receptor (Homo sapiens, UniProt P07550); assay: beta2AR agonists driving receptor internalization, dose response, cell-based, FAP fluorogen, flow cytometry, cherry pick 1 (AID 588763); type: functional
[19] = inhibitors of firefly luciferase expression or activity, dose response, H4 neuroglioma cells, luminescence (AID 1990); type: functional, cell-based
[20] = inhibitors of SNCA 5'UTR-driven reporter translation, confirmation, H4 neuroglioma cells, luminescence (AID 1988); type: functional, cell-based
[21] = target: Acyl-homoserine lactone acylase PvdQ (Pseudomonas aeruginosa (strain LESB58), UniProt Q9I194); assay: P. aeruginosa PvdQ acylase inhibitors, dose response, biochemical, fluorescence, plate reader and imaging, cherry-picks (AID 493231)
Acyl-homoserine lactone acylase PvdQ, sequence (Q9I194 24-193 limits assumed): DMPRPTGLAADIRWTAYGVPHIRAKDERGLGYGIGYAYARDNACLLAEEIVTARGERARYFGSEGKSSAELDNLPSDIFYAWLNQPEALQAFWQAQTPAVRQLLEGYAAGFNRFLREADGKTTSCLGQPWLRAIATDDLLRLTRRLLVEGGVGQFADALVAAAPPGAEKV
Acyl-homoserine lactone acylase PvdQ, sequence (Q9I194 217-762 limits assumed): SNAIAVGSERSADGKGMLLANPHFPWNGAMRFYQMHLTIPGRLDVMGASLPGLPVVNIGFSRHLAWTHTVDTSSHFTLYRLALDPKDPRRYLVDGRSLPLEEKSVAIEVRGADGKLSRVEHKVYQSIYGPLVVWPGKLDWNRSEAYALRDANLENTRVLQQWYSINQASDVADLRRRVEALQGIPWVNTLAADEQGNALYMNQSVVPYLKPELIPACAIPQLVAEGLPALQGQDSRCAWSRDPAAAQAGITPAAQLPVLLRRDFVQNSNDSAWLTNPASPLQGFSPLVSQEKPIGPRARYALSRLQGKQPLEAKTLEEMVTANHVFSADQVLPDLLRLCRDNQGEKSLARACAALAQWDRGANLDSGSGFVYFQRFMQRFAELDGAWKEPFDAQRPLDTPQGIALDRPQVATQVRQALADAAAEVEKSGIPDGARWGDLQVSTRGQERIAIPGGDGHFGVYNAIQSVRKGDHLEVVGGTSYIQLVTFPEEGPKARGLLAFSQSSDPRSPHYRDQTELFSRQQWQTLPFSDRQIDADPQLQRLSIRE

HeLa = assay: HeLa cell cytotoxicity, dose response, cytotoxicity control, 48 h, plate reader, cherry-picks (AID 504942); type: functional, cell-based; details: Homo sapiens
INS1 [22] = assay: protection of INS-1E cells from cytokine death, dose response, ATP luminescence, dry powder (AID 488844); type: functional, cell-based; details: Rattus norvegicus
INS1 [23] = assay: protection from cytokine-induced mitochondrial depolarization, dose response, cell-based, INS-1E, JC-1 fluorescence ratio, dry powder (AID 488931); type: functional; details: Rattus norvegicus
Bcl-2-like protein 10 = Bcl-2-like protein 10 (Homo sapiens, UniProt Q9HD36); assay: Isothermal titration calorimetry (ITC) with Bcl-B and compounds active in primary screen. [Related pubchem assays (depositor defined):AID1693]; type: functional
Bcl-2-like protein 10, sequence (Q9HD36 whole entry): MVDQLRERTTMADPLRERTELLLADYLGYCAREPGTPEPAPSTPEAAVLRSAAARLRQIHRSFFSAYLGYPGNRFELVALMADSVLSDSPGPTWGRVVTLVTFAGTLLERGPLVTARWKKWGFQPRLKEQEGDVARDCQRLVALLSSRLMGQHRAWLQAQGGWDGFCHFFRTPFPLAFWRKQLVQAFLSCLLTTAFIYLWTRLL

Phospholipase D1 = Phospholipase D1 (Homo sapiens, UniProt Q13393); assay: PLD1 inhibitor potency in cells, dose response (AID 602151); type: functional;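 also: cellular PLD1 assay in Calu-1 cells stimulated with PMA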
Phospholipase D1, sequence (Q13393 whole entry): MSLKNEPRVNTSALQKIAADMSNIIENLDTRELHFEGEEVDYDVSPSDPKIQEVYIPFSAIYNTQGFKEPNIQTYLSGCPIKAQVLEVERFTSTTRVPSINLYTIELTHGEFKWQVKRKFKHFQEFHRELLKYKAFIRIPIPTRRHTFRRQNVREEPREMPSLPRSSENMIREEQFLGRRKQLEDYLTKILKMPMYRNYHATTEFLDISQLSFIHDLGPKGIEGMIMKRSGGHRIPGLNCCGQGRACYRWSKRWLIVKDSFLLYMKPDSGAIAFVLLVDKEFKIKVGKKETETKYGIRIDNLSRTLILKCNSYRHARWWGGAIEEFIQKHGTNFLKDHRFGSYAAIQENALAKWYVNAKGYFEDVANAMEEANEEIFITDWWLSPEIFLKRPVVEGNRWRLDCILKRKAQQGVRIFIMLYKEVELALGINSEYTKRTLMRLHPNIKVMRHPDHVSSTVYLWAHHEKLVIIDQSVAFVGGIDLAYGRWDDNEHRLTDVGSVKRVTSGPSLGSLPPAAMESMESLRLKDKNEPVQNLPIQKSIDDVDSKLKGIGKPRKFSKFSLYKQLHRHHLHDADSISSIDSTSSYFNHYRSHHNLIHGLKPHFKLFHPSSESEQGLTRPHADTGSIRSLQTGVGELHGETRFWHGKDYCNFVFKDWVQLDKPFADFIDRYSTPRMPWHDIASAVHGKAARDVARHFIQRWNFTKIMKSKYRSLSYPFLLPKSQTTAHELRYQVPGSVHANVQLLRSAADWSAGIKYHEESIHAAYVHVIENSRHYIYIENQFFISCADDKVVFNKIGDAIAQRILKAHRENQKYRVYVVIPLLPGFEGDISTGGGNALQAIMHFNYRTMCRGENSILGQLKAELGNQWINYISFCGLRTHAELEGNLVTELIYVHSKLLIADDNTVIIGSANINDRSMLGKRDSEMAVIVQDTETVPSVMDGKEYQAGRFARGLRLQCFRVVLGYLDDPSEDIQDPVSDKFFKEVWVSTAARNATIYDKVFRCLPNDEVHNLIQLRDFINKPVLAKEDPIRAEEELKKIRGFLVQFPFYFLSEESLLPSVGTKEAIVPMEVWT

Phospholipase D2 = Phospholipase D2 (Homo sapiens, UniProt O14939); assay: PLD2 inhibitor potency in cells, dose response (AID 602147); type: functional;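 also: cellular assay in HEK293 cells overexpressing GFP-tagged PLD2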
[24] = target: T1, Short transient receptor potential channel 4; assay: TRPC4 inhibitor concentration-response, dose response, cell-based, HEK293 TRPC4/mu-opioid, DAMGO stimulus, Fluo-4 (AID 492994); type: functional
[25] = target: T1, Short transient receptor potential channel 4; assay: SAR Analysis for the identification of selective inhibits of the transient receptor potential cation channel C4 (TRPC4): Automated Electrophysiology. [Related pubchem assays (depositor defined):AID2256]; type: functional
[26] = target: Short transient receptor potential channel 6 (Mus musculus, UniProt Q61143); assay: TRPC6 inhibition potency of TRPC4 inhibitor analogs, dose response, selectivity assay for selective TRPC4 inhibitor project, HEK293 cells, membrane potential dye, IC50 (AID 492987); type: functional, cell-based
Short transient receptor potential channel 6, sequence (Q61143 whole entry): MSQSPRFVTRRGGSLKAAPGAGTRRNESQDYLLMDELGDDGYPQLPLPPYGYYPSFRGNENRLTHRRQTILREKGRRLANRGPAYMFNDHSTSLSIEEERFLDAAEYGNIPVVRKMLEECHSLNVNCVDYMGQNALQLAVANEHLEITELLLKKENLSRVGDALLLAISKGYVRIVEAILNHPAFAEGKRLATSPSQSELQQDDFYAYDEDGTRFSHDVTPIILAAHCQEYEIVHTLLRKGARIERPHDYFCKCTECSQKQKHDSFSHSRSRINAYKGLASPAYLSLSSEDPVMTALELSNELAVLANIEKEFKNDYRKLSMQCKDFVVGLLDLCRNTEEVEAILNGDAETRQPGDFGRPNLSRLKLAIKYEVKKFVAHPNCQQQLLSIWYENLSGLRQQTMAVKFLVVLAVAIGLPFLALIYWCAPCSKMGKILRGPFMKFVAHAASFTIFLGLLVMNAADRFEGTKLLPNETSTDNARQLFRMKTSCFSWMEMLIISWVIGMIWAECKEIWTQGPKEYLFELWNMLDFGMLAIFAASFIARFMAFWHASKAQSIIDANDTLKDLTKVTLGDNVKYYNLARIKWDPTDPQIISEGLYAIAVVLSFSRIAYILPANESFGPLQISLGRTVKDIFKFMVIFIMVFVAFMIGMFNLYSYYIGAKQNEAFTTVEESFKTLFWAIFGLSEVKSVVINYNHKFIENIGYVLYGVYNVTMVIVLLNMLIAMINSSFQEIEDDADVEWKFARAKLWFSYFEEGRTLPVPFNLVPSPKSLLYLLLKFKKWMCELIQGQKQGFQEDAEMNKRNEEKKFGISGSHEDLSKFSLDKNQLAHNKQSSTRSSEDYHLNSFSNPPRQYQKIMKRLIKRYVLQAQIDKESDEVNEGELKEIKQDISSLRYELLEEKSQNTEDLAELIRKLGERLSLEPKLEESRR

## O=C(c1ccc(Cl)cc1)N1CCN(c2cnccn2)CC1
Candida albicans [1]
  AC50: 10.7 µM (active)
Candida albicans [2]
  AC50: 12.7 µM (active)
Candida albicans [3]
  AC50: 234 µM (active)

## Cc1ccc(C)c(-n2cc(CNCCCn3cccn3)c(-c3ccccc3)n2)c1
[4]
  AC50: 1.82 µM (active)
[5]
  EC50: > 92.5 µM (inactive)
[6]
  AC50: 2.56 µM (active)
[7]
  AC50: 1.28 µM (active)
[8]
  EC50: 1.5 µM (active)
[9]
  EC50: > 92.5 µM (inactive)
Mu-type opioid receptor
  EC50: 10.1 µM (inactive)
[10]
  AC50: 0.631 µM (active)

## Cc1ccc(O)c(C2=Nc3ccccc3N=C(c3ccco3)C2)c1
[11]
  EC50: > 99 µM (inactive)
[12]
  EC50: 75.1 µM (inactive)

## O=c1c2c(F)cccc2nc(/C=C/c2cccnc2)n1Cc1ccccc1
Hexokinase HKDC1
  IC50: > 80 µM (inactive)
Hexokinase-1
  IC50: > 80 µM (inactive)

## CC(C)(C)OC(=O)NCc1ccc(NC(=O)c2[nH]cnc2C(=O)NCCNC(=O)c2nc[nH]c2C(=O)Nc2ccc(CNC(=O)OC(C)(C)C)cc2)cc1
INS1 [13]
  AC50: 6.59 µM (active)
DNA topoisomerase
  AC50: 2.49 µM (active)

## CC1=C(C)C(C)=C(C#N)C(=C(C#N)C#N)N1
CAAX prenyl protease 2 [14]
  AC50: 13.9 µM (active)
Trypsin
  AC50: 12.1 µM (active)
CAAX prenyl protease 2 [15]
  AC50: 13.2 µM (active)

## CC1(C)Cc2c(c(-c3ccco3)nc3sc4c(NCCO)ncnc4c23)CO1
[16]
  IC50: > 16 µM (inactive)
[17]
  IC50: 0.909 µM (active)
[18]
  EC50: 0.0133 µM (active)

## COc1ccc(C2=C(C=O)Cc3ccccc3O2)cc1
[19]
  EC50: > 120 µM (not active)
[20]
  EC50: > 120 µM (not active)
[21]
  AC50: 4.37 µM (active)
HeLa
  AC50: > 380 µM (inactive)

## Cc1ccc(S(=O)(=O)N(C)C[C@@H]2Oc3c(NC(=O)Nc4ccccc4)cccc3C(=O)N([C@H](C)CO)C[C@H]2C)cc1
INS1 [22]
  AC50: 22.6 µM (active)
INS1 [23]
  AC50: 141 µM (active)

## O=C1NC(=O)C2(Cc3c(nc4ccccn4c3=O)N3CCCCCC32)C(=O)N1Cc1ccccc1 (stereo not given)
Bcl-2-like protein 10
  IC50: 2.51 µM (active)

## O=C(NCCN1CCC2(CC1)C(=O)NCN2c1ccc(F)c(F)c1)c1ccc(Cl)cc1
Phospholipase D1
  IC50: 2.36 µM (active)
Phospholipase D2
  IC50: 0.37 µM (active)

## Cc1cc(N2CCCCC2)nc2ccc(F)cc12
[24]
  IC50: 10.5 µM (active)
[25]
  IC50: 6.18 µM (active)
[26]
  IC50: 20.1 µM (active)
